Assay [1] deals with T1, mutant p53 protein in H596 (G245C) non-small-cell lung cancer cells (Homo sapiens, UniProt P04637, G245C).
T1 construct: host or cells: H596
The assay is described as follows: Immunoblot of mutant p53 protein in H596 cells. The class given is cell-based. The source says:
(§1) Human H596, A549, HCT116, MDA-MB-231, MDA-MB-468, MCF-7, DU145, MCF-10A, SW480, and SCC-4 cells were obtained from ATCC (Manassas, Va.). H1299-175H cells were kindly provided by Dr. Maria Laura Avantaggiati (Georgetown University). Cells were maintained in DMEM or RPMI-1640 medium supplemented with 10% FBS (Hyclone). […] 2,2-Diphenylethyl ITC, 4-phenoxybenzyl ITC, 4-methoxybenzyl ITC, 4-chlorobenzyl ITC, Dα-methylbenzyl ITC, trityl ITC, and 3-phenylpropyl ITC were purchased from Trans World Chemicals (Rockville, Md.). Erucin and 4-phenylbutyl ITC were from LKT Laboratories, Inc. (St. Paul, Minn.). […] The p53 DO-1 and β-actin antibodies were purchased from Santa Cruz Biotechnology (Santa Cruz, Calif.), horseradish peroxidase-labeled goat antimouse secondary antibodies were purchased from GE-Healthcare (Pittsburgh, Pa.), and Bio-Rad Protein Assay was from Bio-Rad (Hercules, Calif.).
(§2) Whole cell lysates were prepared in lysis buffer (20 mM HEPES, pH 7.4, 2 mM EGTA, 50 mM β-glycerol phosphate, 1% Triton X-100, 10% glycerol, 1 mM DTT, 1 mM PMSF, […], 1 mM Na3-VO4, and 5 mM NaF). For immunoblot analysis, equal amounts of protein were resolved on 4-12% NuPAGE BisTris gels (Invitrogen) and transferred to PVDF membranes (Millipore). The membranes were blocked with 5% milk in TBST and were then probed with p53 (DO-1) or β-actin antibody. Proteins were detected using enhanced chemiluminescence (ECL) reagents (GE Healthcare).
Background: A western blot detects proteins with antibodies after separation by electrophoresis.

Assay [2] has as its target T2, mutant p53 in MDA-MB-231 breast cancer cells (Homo sapiens, UniProt P04637, R280K).
T2 construct: host or cells: MDA-MB-231
The assay is described as follows: Immunoblot of mutant p53 in MDA-MB-231 cells treated with ITCs. The class given is cell-based. Conditions: MDA-MB-231, 10 μM ITCs, 24 h, compared with DMSO control.
Source text: as §1, §2

Assay [3] has as its target T3, mutant (G245C) p53 DNA-binding domain (Homo sapiens, UniProt P04637, G245C).
T3 construct: made in house; host or cells: Escherichia coli BL21
As to the kind of experiment: Monochlorobimane fluorometric cysteine binding assay. To be noted: 100 μM ITC, 1 h, 32 C; compared with trityl ITC, cyclohexylmethyl ITC, SFN, AITC, and PITC (p<0.05). As to the method:
BL21 […] Escherichia coli were transformed with pET29b wild-type or mutant (G245C) p53 DNA binding domain (DBD) plasmids. The E. coli were then cultured in LB media supplemented with 100 μM ZnCl2 and 25 μg/mL kanamycin at 37° C. until OD600=0.6-0.8. Protein expression was induced by 0.1 mM isopropyl β-D-1-thiogalactopyranoside for 16 h at 37 gC for wild-type and 16 gC for mutant p53. Bacterial pellets were then harvested by centrifugation at 5000×g, 10 min, 4 gC, and lysed via sonication in 50 mM Tris, 50 mM KCl, 5 mM dithiothreitol, 1 mM PMSF, pH 7 buffer. The soluble fraction was passed through a Capto S cation exchange column (GE Healthcare) and eluted with 50 mM Tris, 200 mM KCl, 5 mM DTT, pH 7. Eluted protein was dialyzed overnight against a non-salt dialysis buffer (50 mM Tris, 5 mM DTT, pH 7) and loaded onto a HiTrap Heparin HP column (GE Healthcare). The p53 DBD was purified via a AKTApurifier-10 protein liquid chromatography system (GE Healthcare) with an increasing KCl salt gradient, and purity was tested by SDSPAGE and Coomassie blue staining. Purified protein was dialyzed in PBS, and protein concentrations were determined prior to performing fluorescence experiments.
In a white 96-well plate, 100 μL of purified mutant (G245C) p53 DNA-binding domain protein in PBS was treated with DMSO, 100 μM ITCs in DMSO, or 500 μM iodoacetamide (positive binding control). An additional well containing 100 μL of PBS was used to determine background. Samples were incubated with compounds in the dark for 1 h at 32 gC, after which […] of 10 mM monochlorobimane was added (in the dark), and samples were further incubated in the dark at 32 gC for 30 min. Fluorescence readings were then obtained using a BIO-TEK Synergy HT plate reader (λex 380 nm; λem 485 nm).

In assay [4] the test system is LNCap (wild-type p53) xenograft tumors. As to the kind of experiment: Xenograft model, LNCap tumors, PEITC diet. Format: in vivo, BALB/C nu/nu transgenic mice. As to the method: Briefly, 30 BALB/C nu/nu transgenic mice (purchased from Charles River) were randomized into two groups, and fed with powder diet AlN93 (purchased from Research Diets, Inc.) with or without addition of 5 μM PEITC compound (purchased from Sigma-Aldrich). After two weeks of feeding, two xenograft tumors each carrying […] in a volume of 100 μL were established by injection into both flanks of a mouse. Mice were continuously fed with diets with or without PEITC for additional 8 weeks before sacrifice. Diet intake and tumor volume were measured twice every week. Tumors were harvested at the end of bioassay for immunohistochemistry and immunoblot studies. […] Immunohistochemistry assays were carried out to examine the apoptotic markers, such as TUNEL, and anti-proliferation marker Ki67 in tumors from the PEITC-treated vs. untreated mice. This study provides the first in vivo evidence that mutant p53 can be depleted in tumors of mice fed PEITC-containing diet and its depletion seems to correlate with growth inhibition in the mutant p53 tumors.

For assay [5], the system named is H522 cells. The assay is described as follows: Apoptosis and cell cycle progression, H522. Format: cell-based. To be noted: H522, 4 uM PEITC. The source says:
(§3) The negative effects of PEITC on cell proliferation might affect the apoptotic potential of the cells and the cell cycle progression.

The subject of assay [6] is DU145 cells. As to the kind of experiment: Apoptosis and cell cycle progression, DU145. Format: cell-based, Human. To be noted: DU145, 4 uM PEITC.
Source text: as §3

The target in assay [7] is T4, p53R175H mutant protein in SK-BR-3 cells (Homo sapiens, UniProt P04637, R175H).
T4 construct: endogenous in cells; host or cells: SK-BR-3
As to the kind of experiment: Immunofluorescence with conformation specific antibodies (PAB240, PAB1620). The class given is cell-based. To be noted: SK-BR-3, PEITC 4 hrs vs DMSO. The method, then:
To determine if the induction of apoptosis is due to the restoration of WT conformation to the mutant p53 protein, immunoflourescence analysis was performed. SK-BR-3 cells expressing p53R175H mutant protein were treated with PEITC or DMSO as a control for 4 hrs. Cells were stained with the conformation specific antibody (PAB240) that recognizes the mutant p53 or antibody specific for the WT p53 protein (PAB1620).

As to `S=C=NCCc1ccccc1` [PEITC, phenethyl isothiocyanate], the “mutant p53 protein level” value in assay [1] (H596 (G245C), 15 μM PEITC, immunoblot) is “rapid depletion”. For the same compound, the “earliest time at which depletion of mutant p53 occurred” value in assay [1] (H596, 15 μM PEITC) is on record as 2 h. The “time at which depletion of mutant p53 peaked” value in assay [1] (H596, 15 μM PEITC, sustained during 24 h treatment) came to 4 h. Besides, the “depletion of mutant p53 at equimolar concentrations” value in assay [1] (H596, 20 μM ITCs, 24 h, compared with DMSO control) is “approximately the same extent”; in assay [2] it was “approximately the same extent”. Moreover, in assay [3], the “binding affinity for mutant (G245C) p53 DBD (free thiols, relative fluorescence)” value was “greater binding affinities”. Also, the “p53 level in tumors detected by immunoblot” value in assay [4] (LNCap tumors, PEITC diet) is recorded as “not in LNCap tumors”. Moreover, the tumor volume result in assay [4] (LNCap xenograft, diet with 5 μM PEITC vs diet without PEITC, 8 weeks) is on record as “significantly decreased”. Moreover, the “apoptosis compared to DMSO treated cells” value in assay [5] and in assay [6] was “two fold increase” in each case. Besides, the cell cycle progression entry in assay [5] and in assay [6] was “S-phase arrest” each time. The “conformation of p53R175H mutant (PAB1620 staining)” value in assay [7] is given as “induced conformation change”.

Values taken from patent US20130158111A1, “Compositions and Methods for Depleting Mutant p53” (Georgetown University, priority 2011, published 2013).
